Here are results for 23 molecules from US20240190874A1, “SMALL MOLECULE DEGRADERS OF ANDROGEN RECEPTOR” (THE REGENTS OF THE UNIVERSITY OF MICHIGAN, priority 2021, published 2024).

Molecules are shown by their SMILES. Read-outs that look alike come from different tables or passages of the source.

Holding throughout (format): cell-based
In one assay the target is T1, AR (Homo sapiens, UniProt P10275).
T1 construct: Degradation of AR; Cellular potency; host or cells: VCaP cells
T1 sequence (P10275 1-920): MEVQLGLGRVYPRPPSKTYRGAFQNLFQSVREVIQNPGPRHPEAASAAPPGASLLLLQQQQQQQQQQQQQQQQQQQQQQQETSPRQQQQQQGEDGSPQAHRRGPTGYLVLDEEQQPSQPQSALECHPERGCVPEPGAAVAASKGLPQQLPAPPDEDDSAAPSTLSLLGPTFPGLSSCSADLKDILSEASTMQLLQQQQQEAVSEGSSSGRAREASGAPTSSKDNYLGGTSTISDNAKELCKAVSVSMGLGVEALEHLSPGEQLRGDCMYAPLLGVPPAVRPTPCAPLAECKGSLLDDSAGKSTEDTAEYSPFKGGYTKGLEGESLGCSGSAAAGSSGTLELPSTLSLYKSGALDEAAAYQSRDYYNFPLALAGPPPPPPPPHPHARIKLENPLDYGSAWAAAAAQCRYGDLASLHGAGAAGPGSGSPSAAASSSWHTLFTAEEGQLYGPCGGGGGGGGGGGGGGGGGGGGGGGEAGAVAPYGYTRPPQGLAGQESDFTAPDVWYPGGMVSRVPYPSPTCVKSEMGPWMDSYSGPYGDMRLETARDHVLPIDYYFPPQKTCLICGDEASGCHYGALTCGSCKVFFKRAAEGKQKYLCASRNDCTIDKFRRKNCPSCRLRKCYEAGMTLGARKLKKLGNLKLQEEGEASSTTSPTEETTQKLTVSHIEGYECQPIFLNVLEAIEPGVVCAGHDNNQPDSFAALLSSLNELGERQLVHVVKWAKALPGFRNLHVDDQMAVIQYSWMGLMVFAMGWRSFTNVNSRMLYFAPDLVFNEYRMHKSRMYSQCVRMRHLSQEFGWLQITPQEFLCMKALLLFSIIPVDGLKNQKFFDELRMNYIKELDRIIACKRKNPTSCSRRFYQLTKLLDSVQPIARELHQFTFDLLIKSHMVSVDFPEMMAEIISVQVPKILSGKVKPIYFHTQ
Put plainly: Degradation of AR in VCaP cells. The following applies: for Dmax: VCaP. Here is the method:
(§1) Biological Assays. LNCaP and VCaP cells used were purchased from American Type Culture Collection (ATCC). LNCaP were grown in RPMI 1640 (Invitrogen) and VCaP cells were grown in DMEM with Glutamax (Invitrogen). All of the cells were supplemented with 10% fetal bovine serum (Invitrogen) at 37° C. in a humidified 5% CO2 incubator.

A further assay deals with LNCaP cells. In words: Cellular potency (IC50) in LNCaP cells. Here is the method:
as §1

Another assay deals with VCaP cells. Put plainly: Cellular potency (IC50) in VCaP cells. Here is the method:
as §1

A word on the DC50: it is the concentration giving 50% degradation. A lower DC50 goes with a more potent degrader. By Dmax is commonly meant the greatest extent of degradation seen. On AR (VCaP cells), `C[C@H]1CC2(CCN(c3ccc(S(=O)(=O)N4CCN(C5CCN(c6ccc7c(c6)C(=O)N(C6CCC(=O)NC6=O)C7=O)CC5)CC4)cc3)CC2)CN1c1ccc(C#N)c(Cl)c1` (some centres unmarked) [compound 1] showed a DC50 of less than 0.001 µM and a maximal degradation (Dmax) greater than 90%.
The IC50 is the point on the concentration scale where inhibition reaches its midpoint. Lower therefore signals greater potency in that assay. Regarding `C[C@H]1CC2(CCN(c3ccc(S(=O)(=O)N4CCN(C5CN(c6ccc7c(c6)C(=O)N(C6CCC(=O)NC6=O)C7=O)C5)CC4)cc3)CC2)CN1c1ccc(C#N)c(Cl)c1` (some centres unmarked) [compound 2], on AR (VCaP cells), the DC50 was less than 0.001 µM and the Dmax was greater than 90%. In addition, in the assay on LNCaP cells (Homo sapiens, LNCaP), the IC50 was less than 0.01 µM. In the assay with VCaP cells (Homo sapiens, VCaP), the IC50 was less than 0.01 µM.
Take `C[C@H]1CC2(CCN(c3ccc(S(=O)(=O)N4CCC(CN5Cc6cc7c(cc6C5)C(=O)N(C5CCC(=O)NC5=O)C7=O)CC4)cc3)CC2)CN1c1ccc(C#N)c(Cl)c1` (some centres unmarked) [compound 3]: on AR (VCaP cells), the DC50 is less than 0.001 µM and the Dmax is greater than 90%. Further, the IC50 in the assay with LNCaP cells (Homo sapiens, LNCaP) was less than 0.01 µM. This molecule also came in with an IC50 with VCaP cells (Homo sapiens, VCaP) of less than 0.01 µM.
Turning to `C[C@H]1CC2(CCN(c3ccc(S(=O)(=O)N4CCC(N5Cc6cc7c(cc6C5)C(=O)N(C5CCC(=O)NC5=O)C7=O)CC4)cc3)CC2)CN1c1ccc(C#N)c(Cl)c1` (some centres unmarked) [compound 4], on AR (VCaP cells), the DC50 was less than 0.001 µM and the Dmax lay in the range of 70 to 90%. The same molecule returned an IC50 in the assay with LNCaP cells (Homo sapiens, LNCaP) of less than 0.01 µM. The IC50 in the assay with VCaP cells (Homo sapiens, VCaP) is less than 0.01 µM.
With `C[C@H]1CC2(CCN(c3ccc(CN4CCN(C5CN(c6ccc7c(c6)C(=O)N(C6CCC(=O)NC6=O)C7=O)C5)CC4)cc3)CC2)CN1c1ccc(C#N)c(Cl)c1` (some centres unmarked) [compound 5], on AR (VCaP cells), the DC50 was less than 0.001 µM and the Dmax was greater than 90%. In the assay on LNCaP cells (Homo sapiens, LNCaP), this molecule gave an IC50 of less than 0.01 µM. Besides, the half-inhibitory concentration (IC50) with VCaP cells (Homo sapiens, VCaP) is less than 0.01 µM.
`C[C@H]1CC2(CCN(c3ccc(CN4CCN(C5CN(c6ccc7c(c6)C(=O)N(C6CCC(=O)NC6=O)C7=O)C5)CC4)cc3)CC2)CN1c1ccc(C#N)c(Cl)c1` (some centres unmarked) [compound 6]: the half-maximal degradation concentration (DC50) at AR (VCaP cells) was less than 0.001 µM. The concentration for half-maximal inhibition (IC50) in the assay with LNCaP cells and in the assay with VCaP cells was less than 0.01 µM throughout.
`C[C@H]1CC2(CCN(c3ccc(CN4CCN(C5CN(c6ccc7c(c6)C(=O)N(C6CCC(=O)NC6=O)C7=O)C5)CC4)c(F)c3)CC2)CN1c1ccc(C#N)c(Cl)c1` (some centres unmarked) [compound 8] gave a DC50 on AR (VCaP cells) of less than 0.01 µM. This molecule displayed a Dmax at AR (VCaP cells) of 70 to 90%. Further, the IC50 in the assay with LNCaP cells (Homo sapiens, LNCaP) was less than 0.1 µM; in the assay on VCaP cells (Homo sapiens, VCaP) it was less than 0.1 µM.
With `C[C@H]1CC2(CCN(c3ccc(CN4CCC(C5CN(c6ccc7c(c6)C(=O)N(C6CCC(=O)NC6=O)C7=O)C5)CC4)c(F)c3)CC2)CN1c1ccc(C#N)c(Cl)c1` (some centres unmarked) [compound 9], the DC50 on AR (VCaP cells) is less than 0.001 µM. Also, on AR (VCaP cells), the Dmax is greater than 90%. Further, the IC50 with LNCaP cells and in the assay on VCaP cells was less than 0.01 µM in each case.
Take `COC1(CN2Cc3cc4c(cc3C2)C(=O)N(C2CCC(=O)NC2=O)C4=O)CCN(C(=O)c2ccc(N3CCC4(CC3)C[C@H](C)N(c3ccc(C#N)c(F)c3)C4)cc2)CC1` (some centres unmarked) [compound 13]: on AR, the Dmax was greater than 90%. Moreover, the DC50 on AR (VCaP cells) is less than 0.1 µM.
On AR (VCaP cells), `C[C@H]1CC2(CCN(c3ccc(C4CCN(C(=O)CN5Cc6cc7c(cc6C5)C(=O)N(C5CCC(=O)NC5=O)C7=O)CC4)cc3)CC2)CN1c1ccc(C#N)c(Cl)c1` (some centres unmarked) [compound 15] returned a DC50 of less than 0.1 µM and a Dmax greater than 90%.
The matching figures for `C[C@H]1CC2(CCN(c3ccc(N4CCN(CC5(F)CN(c6ccc7c(c6)C(=O)N(C6CCC(=O)NC6=O)C7=O)C5)CC4)cc3)CC2)CN1c1ccc(C#N)c(Cl)c1` (some centres unmarked) [compound 84]: less than 0.001 µM and greater than 90%.
At AR (VCaP cells), `COC1(CN2CCN(c3ccc(N4CCC5(CC4)C[C@H](C)N(c4ccc(C#N)c(Cl)c4)C5)cc3)CC2)CN(c2ccc3c(c2)C(=O)N(C2CCC(=O)NC2=O)C3=O)C1` (some centres unmarked) [compound 85] displayed a DC50 of less than 0.001 µM and a Dmax greater than 90%.
As for `C[C@H]1CC2(CCN(c3ccc(N4CCN(CC5(F)CN(c6ccc7c(c6)C(=O)N(C6CCC(=O)NC6=O)C7=O)C5)CC4)nc3)CC2)CN1c1ccc(C#N)c(Cl)c1` (some centres unmarked) [compound 86], at AR (VCaP cells), the 50% degradation concentration (DC50) was less than 0.001 µM and the Dmax is greater than 90%.
At AR (VCaP cells), `COC1(CN2CCN(c3ccc(N4CCC5(CC4)C[C@H](C)N(c4ccc(C#N)c(Cl)c4)C5)cn3)CC2)CN(c2ccc3c(c2)C(=O)N(C2CCC(=O)NC2=O)C3=O)C1` (some centres unmarked) [compound 87] registered a DC50 of less than 0.001 µM and a Dmax greater than 90%.
For `C[C@H]1CC2(CCN(c3ccc(N4CCN(CC5(F)CN(c6ccc7c(c6)C(=O)N(C6CCC(=O)NC6=O)C7=O)C5)CC4)cn3)CC2)CN1c1ccc(C#N)c(Cl)c1` (some centres unmarked) [compound 88], on AR (VCaP cells), the half-maximal degradation concentration (DC50) was less than 0.001 µM and the Dmax was greater than 90%.
The matching figures for `COC1(CN2CCN(c3ccc(N4CCC5(CC4)C[C@H](C)N(c4ccc(C#N)c(Cl)c4)C5)nc3)CC2)CN(c2ccc3c(c2)C(=O)N(C2CCC(=O)NC2=O)C3=O)C1` (some centres unmarked) [compound 89]: less than 0.001 µM and greater than 90%.
For `C[C@H]1CC2(CCN(c3ccc(C(=O)C4CCN(CC(=O)N5Cc6cc7c(cc6C5)C(=O)N(C5CCC(=O)NC5=O)C7=O)CC4)cc3)CC2)CN1c1ccc(C#N)c(Cl)c1` (stereo partly drawn) [compound 147, 2-chloro-4-((3S)-8-(4-(1-(2-(6-(2,6-dioxopiperidin-3-yl)-5,7-dioxo-3,5,6,7-tetrahydropyrrolo[3,4-f]isoindol-2(1H)-yl)-2-oxoethyl)piperidine-4-carbonyl)phenyl)-3-methyl-2,8-diazaspiro[4.5]decan-2-yl)benzonitrile], the IC50 in the assay with LNCaP cells (Homo sapiens, LNCaP) is less than 0.01 µM; with VCaP cells (Homo sapiens, VCaP), less than 0.1 µM.
In the case of `C[C@H]1CC2(CCN(c3ccc(C(=O)C4CCN(C(=O)CN5Cc6cc7c(cc6C5)C(=O)N(C5CCC(=O)NC5=O)C7=O)CC4)cc3)CC2)CN1c1ccc(C#N)c(Cl)c1` (stereo partly drawn) [compound 148, 2-chloro-4-((3S)-8-(4-(1-(2-(6-(2,6-dioxopiperidin-3-yl)-5,7-dioxo-3,5,6,7-tetrahydropyrrolo[3,4-f]isoindol-2(1H)-yl)acetyl)piperidine-4-carbonyl)phenyl)-3-methyl-2,8-diazaspiro[4.5]decan-2-yl)benzonitrile], the IC50 in the assay on LNCaP cells (Homo sapiens, LNCaP) was less than 0.01 µM; in the assay on VCaP cells (Homo sapiens, VCaP) it was less than 0.1 µM.
For `C[C@H]1CC2(CCN(c3ccc(CN4CCN(C5CN(c6cc7c(cc6F)C(=O)N(C6CCC(=O)NC6=O)C7=O)C5)CC4)cn3)CC2)CN1c1ccc(C#N)c(Cl)c1` (stereo partly drawn) [compound 153, 2-chloro-4-((3S)-8-(5-((4-(1-(2-(2,6-dioxopiperidin-3-yl)-6-fluoro-1,3-dioxoisoindolin-5-yl)azetidin-3-yl)piperazin-1-yl)methyl)pyridin-2-yl)-3-methyl-2,8-diazaspiro[4.5]decan-2-yl)benzonitrile], the IC50 with LNCaP cells (Homo sapiens, LNCaP) was less than 0.01 µM; in the assay on VCaP cells (Homo sapiens, VCaP) it was less than 0.1 µM.
`C[C@H]1CC2(CCN(c3ccc(CN4CCN(C5CN(c6ccc7c(c6)C(=O)N(C6CCC(=O)NC6=O)C7=O)C5)CC4)cn3)CC2)CN1c1ccc(C#N)c(Cl)c1` (some centres unmarked) [compound 167]: the IC50 with LNCaP cells (Homo sapiens, LNCaP) is less than 0.01 µM; with VCaP cells (Homo sapiens, VCaP), less than 0.01 µM.
As to `C[C@H]1CC2(CCN(c3ccc(CN4CCN(C5CN(c6ccc7c(c6)C(=O)N(C6CCC(=O)NC6=O)C7=O)C5)CC4)nc3)CC2)CN1c1ccc(C#N)c(Cl)c1` (stereo partly drawn) [compound 169, 2-chloro-4-((3S)-8-(6-((4-(1-(2-(2,6-dioxopiperidin-3-yl)-1,3-dioxoisoindolin-5-yl)azetidin-3-yl)piperazin-1-yl)methyl)pyridin-3-yl)-3-methyl-2,8-diazaspiro[4.5]decan-2-yl)benzonitrile], the IC50 is less than 0.01 µM in the assay with LNCaP cells (Homo sapiens, LNCaP) and less than 0.01 µM with VCaP cells (Homo sapiens, VCaP).
With `C[C@H]1CC2(CCN(c3cnc(CN4CCN(C5CN(c6ccc7c(c6)C(=O)N(C6CCC(=O)NC6=O)C7=O)C5)CC4)nc3)CC2)CN1c1ccc(C#N)c(Cl)c1` (stereo partly drawn) [compound 170, 2-chloro-4-((3S)-8-(2-((4-(1-(2-(2,6-dioxopiperidin-3-yl)-1,3-dioxoisoindolin-5-yl)azetidin-3-yl)piperazin-1-yl)methyl)pyrimidin-5-yl)-3-methyl-2,8-diazaspiro[4.5]decan-2-yl)benzonitrile], the IC50 is less than 0.01 µM with LNCaP cells (Homo sapiens, LNCaP) and less than 0.1 µM with VCaP cells (Homo sapiens, VCaP).
The corresponding values for `C[C@H]1CC2(CCN(c3ccc(CN4CCC(C5CCN(c6ccc7c(c6)C(=O)N(C6CCC(=O)NC6=O)C7=O)CC5)CC4)cn3)CC2)CN1c1ccc(C#N)c(Cl)c1` (stereo partly drawn) [compound 180, 2-chloro-4-((3S)-8-(5-((1′-(2-(2,6-dioxopiperidin-3-yl)-1,3-dioxoisoindolin-5-yl)-[4,4′-bipiperidin]-1-yl)methyl)pyridin-2-yl)-3-methyl-2,8-diazaspiro[4.5]decan-2-yl)benzonitrile] are less than 0.01 µM and less than 0.1 µM.
